Activity calls are given as the source filed them. The calls are words filed in the database; no cut-off is given here.
Legend:
[1] = Toxicity in BALB/c mouse transplanted with […] cells assessed as heart damage at 5 to 20 mg/kg, ip administered for 14 days by hematoxylin and eosin staining based analysis; format: organism-based; conditions: in vivo, 336 h, dose 5-20 mg/kg, time 14 day
[2] = Toxicity in BALB/c mouse transplanted with […] cells assessed as liver damage at 5 to 20 mg/kg, ip administered for 14 days by hematoxylin and eosin staining based analysis; format: organism-based; conditions: in vivo, 336 h, dose 5-20 mg/kg, time 14 day
MCF7 [3] = assay: Inhibition of colony formation in human MCF7 cells incubated for 2 weeks by crystal violet staining based analysis; format: functional, cell-based; conditions: dose 0.075-1.2 µM
[4] = target: T1, DNA topoisomerase 1 (Homo sapiens) (UniProt P11387); assay: Inhibition of Topoisomerase I (unknown origin) assessed as inhibition of relaxation of supercoiled DNA incubated for 90 mins in presence of pBR322 by electrophoretic analysis; conditions: dose 25-100 µM
T1 sequence (whole entry): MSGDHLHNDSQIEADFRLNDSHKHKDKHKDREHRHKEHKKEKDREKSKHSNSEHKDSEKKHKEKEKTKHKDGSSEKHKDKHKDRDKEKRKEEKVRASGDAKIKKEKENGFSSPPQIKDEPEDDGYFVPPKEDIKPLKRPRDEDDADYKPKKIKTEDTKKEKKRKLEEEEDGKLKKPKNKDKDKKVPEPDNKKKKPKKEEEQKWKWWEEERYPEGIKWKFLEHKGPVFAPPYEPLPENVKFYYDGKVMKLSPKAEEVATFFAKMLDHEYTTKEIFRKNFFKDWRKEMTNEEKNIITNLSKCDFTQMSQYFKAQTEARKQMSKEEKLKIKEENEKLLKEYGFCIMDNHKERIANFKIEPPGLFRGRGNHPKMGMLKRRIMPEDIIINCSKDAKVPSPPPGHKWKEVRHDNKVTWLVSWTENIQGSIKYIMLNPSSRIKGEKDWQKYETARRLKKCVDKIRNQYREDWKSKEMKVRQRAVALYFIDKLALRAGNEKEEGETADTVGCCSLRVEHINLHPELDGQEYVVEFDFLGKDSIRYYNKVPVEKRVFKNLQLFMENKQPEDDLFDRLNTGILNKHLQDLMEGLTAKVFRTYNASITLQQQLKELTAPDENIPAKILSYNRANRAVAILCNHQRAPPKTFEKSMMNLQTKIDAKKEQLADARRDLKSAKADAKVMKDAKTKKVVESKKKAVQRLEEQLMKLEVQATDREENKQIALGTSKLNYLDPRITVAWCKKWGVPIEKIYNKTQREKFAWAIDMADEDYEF

MCF7 [5] = assay: Antimigratory activity against human MCF7 cells assessed as wound healing rate at 0.125 uM incubated for 24 hrs by inverted fluorescence microscopic analysis (reference value: 42.5 %); format: functional
MCF7 [6] = assay: Induction of DNA damage in human MCF7 cells at 5 to 10 uM pre-incubated for 24 hrs by Comet assay; format: functional, cell-based; conditions: dose 5-10 µM
MCF7 [7] = assay: Induction of apoptosis in human MCF7 cells assessed as necrotic cells at 0.5 uM incubated for 24 hrs by Annexin V-FITC/Propidium Iodide staining based flow cytometry analysis (reference value: 0.082 %); format: functional
MCF7 [8] = assay: Induction of apoptosis in human MCF7 cells assessed as late apoptotic cells at 0.1 uM incubated for 24 hrs by Annexin V-FITC/Propidium Iodide staining based flow cytometry analysis (reference value: 5.58 %); format: functional
A549 = assay: Antiproliferative activity against human A549 cells assessed as inhibition of cell growth incubated for 48 hrs by MTT assay; format: functional, cell-based; conditions: A549, 48 h
MCF7 [9] = assay: Inhibition of colony formation in human MCF7 cells at 0.075 uM incubated for 2 weeks by crystal violet staining based analysis; format: functional, cell-based
MCF7 [10] = assay: Induction of apoptosis in human MCF7 cells assessed as early apoptotic cells at 0.5 uM incubated for 24 hrs by Annexin V-FITC/Propidium Iodide staining based flow cytometry analysis (reference value: 2.54 %); format: functional
MCF7 [11] = assay: Induction of apoptosis in human MCF7 cells assessed as early apoptotic cells at 2 uM incubated for 24 hrs by Annexin V-FITC/Propidium Iodide staining based flow cytometry analysis (reference value: 2.54 %); format: functional
MDA-MB-231 = assay: Antiproliferative activity against human MDA-MB-231 cells assessed as inhibition of cell growth incubated for 48 hrs by MTT assay; format: functional, cell-based; conditions: MDA-MB-231, 48 h
MCF7 [12] = assay: Induction of apoptosis in human MCF7 cells assessed as necrotic cells at 2 uM incubated for 24 hrs by Annexin V-FITC/Propidium Iodide staining based flow cytometry analysis (reference value: 0.082 %); format: functional
MCF7 [13] = assay: Antimigratory activity against human MCF7 cells assessed as decrease in MMP-2 expression incubated for 24 hrs by Western blotting analysis; format: functional, cell-based; conditions: dose 125-500 nM
MCF7 [14] = assay: Antimigratory activity against human MCF7 cells assessed as wound healing rate at 0.5 uM incubated for 24 hrs by inverted fluorescence microscopic analysis (reference value: 42.5 %); format: functional
MCF7 [15] = assay: Antimigratory activity against human MCF7 cells assessed as reduction in penetration of cells in transwell membrane at 0.125 to 0.5 uM incubated for 24 hrs by crystal violet staining based inverted fluorescence microscopic analysis; format: functional, cell-based; conditions: dose 0.125-0.5 µM
MCF7 [16] = assay: Induction of DNA double-strand breaks in human MCF7 cells assessed as increase in gamma-H2AX protein expression incubated for 48 hrs by Western blotting analysis; format: functional, cell-based; conditions: dose 0.25-1 µM
MCF7 [17] = assay: Induction of apoptosis in human MCF7 cells assessed as viable cells at 0.1 uM incubated for 24 hrs by Annexin V-FITC/Propidium Iodide staining based flow cytometry analysis (reference value: 91.8 %); format: functional; conditions: read-out: Activity
[18] = Toxicity in BALB/c mouse transplanted with […] cells assessed as change in lactate dehydrogenase level at 5 to 20 mg/kg, ip administered for 14 days by biochemical analysis; format: organism-based; conditions: in vivo, 336 h, dose 5-20 mg/kg, time 14 day
MCF7 [19] = assay: Antimigratory activity against human MCF7 cells assessed as inhibition of recovery of cells from scratch wounds incubated for 24 hrs by inverted fluorescence microscopic analysis; format: functional, cell-based; conditions: dose 0.125-0.5 µM
MCF7 [20] = assay: Induction of apoptosis in human MCF7 cells assessed as viable cells at 0.5 uM incubated for 24 hrs by Annexin V-FITC/Propidium Iodide staining based flow cytometry analysis (reference value: 91.8 %); format: functional; conditions: read-out: Activity
[21] = Toxicity in BALB/c mouse transplanted with […] cells assessed as change in creatinine level at 5 to 20 mg/kg, ip administered for 14 days by biochemical analysis; format: organism-based; conditions: in vivo, 336 h, dose 5-20 mg/kg, time 14 day
MCF7 [22] = assay: Antiproliferative activity against human MCF7 cells assessed as inhibition of cell growth incubated for 48 hrs by MTT assay; format: functional, cell-based; conditions: MCF7, 48 h
[23] = Toxicity in BALB/c mouse transplanted with […] cells assessed as change in creatine kinase level at 5 to 20 mg/kg, ip administered for 14 days by biochemical analysis; format: organism-based; conditions: in vivo, 336 h, dose 5-20 mg/kg, time 14 day
[24] = Toxicity in BALB/c mouse transplanted with […] cells assessed as lung damage at 5 to 20 mg/kg, ip administered for 14 days by hematoxylin and eosin staining based analysis; format: organism-based; conditions: in vivo, 336 h, dose 5-20 mg/kg, time 14 day
[25] = Cytotoxicity against human L02 cells assessed as inhibition of cell growth incubated for 48 hrs by MTT assay; format: toxicity, cell-based

**Q.** Which Activity [1] does the source give for `O=C(/C=C/c1ccc(Cl)c([N+](=O)[O-])c1)c1nccc2c1[nH]c1ccccc12` here?
**A.** Non-Toxic

**Q.** What about the Activity [2] of the same molecule?
**A.** Non-Toxic

**Q.** What about the inhibition (MCF7 [3]) of the same molecule?
**A.** Dose-Dependent Effect

**Q.** What about the inhibition [4] of the same molecule?
**A.** Dose-Dependent Effect

**Q.** What about the Activity (MCF7 [5]) of the same molecule?
**A.** 15.3%

**Q.** What about the Activity (MCF7 [6]) of the same molecule?
**A.** Active

**Q.** And the Activity (MCF7 [7])?
**A.** 0.27%

**Q.** What about the Activity (MCF7 [8]) of the same molecule?
**A.** 7.06%

**Q.** What about the IC50 (A549) of the same molecule?
**A.** 2.02 µM

**Q.** And the inhibition (MCF7 [9])?
**A.** Active

**Q.** And the Activity (MCF7 [10])?
**A.** 20.1%

**Q.** What about the Activity (MCF7 [11]) of the same molecule?
**A.** 7.59%

**Q.** What about the IC50 (MDA-MB-231) of the same molecule?
**A.** 0.98 µM

**Q.** What about the Activity (MCF7 [12]) of the same molecule?
**A.** 0.93%

**Q.** And the Activity (MCF7 [13])?
**A.** Dose-Dependent Effect

**Q.** And the Activity (MCF7 [14])?
**A.** 1.4%

**Q.** And the Activity (MCF7 [15])?
**A.** Active

**Q.** And the Activity (MCF7 [16])?
**A.** Dose-Dependent Effect

**Q.** What about the viability at 0.1 µM (MCF7 [17]) of the same molecule?
**A.** 85.3%

**Q.** And the Activity [18]?
**A.** Non-Toxic

**Q.** What about the Activity (MCF7 [19]) of the same molecule?
**A.** Dose-Dependent Effect

**Q.** What about the viability at 0.5 µM (MCF7 [20]) of the same molecule?
**A.** 71%

**Q.** What about the Activity [21] of the same molecule?
**A.** Non-Toxic

**Q.** And the IC50 (MCF7 [22])?
**A.** 0.34 µM

**Q.** What about the Activity [23] of the same molecule?
**A.** Non-Toxic

**Q.** What about the Activity [24] of the same molecule?
**A.** Non-Toxic

**Q.** And the IC50 at 48 h [25]?
**A.** 9.61 µM

Reference: ChEMBL document CHEMBL5518180, “Design, synthesis, and biological evaluation of harmine derivatives as topoisomerase I inhibitors for cancer treatment” (Eur J Med Chem, 2024)
